Test results published in patent US20240423207A1, “PICOLINAMIDE COMPOUNDS WITH FUNGICIDAL ACTIVITY” (CORTEVA AGRISCIENCE LLC, priority 2014, published 2024).
Like-named read-outs stand apart in the source and are kept apart here.

Tests used:
Type in all cases: in vivo
[1] = test system: Cercospora beticola; experiment: Leaf Spot of Sugar Beets (CERCBE) fungicidal activity on sugar beet plants; conditions: 24 h, 1 Day Protectant, read-out: CERCBE 1 DP disease control
Method: Technical grades of materials were dissolved in acetone, which were then mixed with nine volumes of water (H2O) containing 110 ppm Triton X-100. The fungicide solutions were applied onto wheat seedlings using an automated booth sprayer to run-off. All sprayed plants were allowed to air dry prior to further handling. All fungicides were evaluated using the aforementioned method for their activity vs. all target diseases, unless stated otherwise. Wheat leaf blotch and brown rust activity were also evaluated using track spray applications, in which case the fungicides were formulated as EC formulations, containing 0.1% Trycol 5941 in the spray solutions. Wheat plants (variety Yuma) were grown from seed in a greenhouse in 50% mineral soil/50% soil-less Metro mix until the first leaf was fully emerged, with 7-10 seedlings per pot. These plants were inoculated with an aqueous spore suspension of Septoria tritici either prior to or after fungicide treatments. After inoculation the plants were kept in 100% relative humidity (one day in a dark dew chamber followed by two to three days in a lighted dew chamber at 20° C.) to permit spores to germinate and infect the leaf. The plants were then transferred to a greenhouse set at 20° C. for disease to develop. When disease symptoms were fully expressed on the 1st leaves of untreated plants, infection levels were assessed on a scale of 0 to 100 percent disease severity. Percent disease control was calculated using the ratio of disease severity on treated plants relative to untreated plants. Example E: Evaluation of Fungicidal Activity: Leaf Spot of Sugar Beets (Cercospora beticola; Bayer code CERCBE) Sugar beet plants (variety HH88) were grown in soil-less Metro mix and trimmed regularly to maintain a uniform plant size prior to test. Plants were inoculated with a spore suspension 24 h after fungicide treatments. Inoculated plants were kept in a dew chamber at 22° C. for 48 h then incubated in a greenhouse set at 24° C. under a clear plastic hood with bottom ventilation until disease symptoms were fully expressed. Fungicide formulation, application and disease assessment on the sprayed leaves followed the procedures as described in the Example A.

[2] = test system: Glomerella lagenarium; Anamorph: Colletotrichum lagenarium; experiment: Cucumber Anthracnose (COLLLA) fungicidal activity on cucumber seedlings; conditions: Colletotrichum orbiculare, 24 h, 1 Day Protectant, read-out: COLLLA 1 DP disease control
Method: Technical grades of materials were dissolved in acetone, which were then mixed with nine volumes of water (H2O) containing 110 ppm Triton X-100. The fungicide solutions were applied onto wheat seedlings using an automated booth sprayer to run-off. All sprayed plants were allowed to air dry prior to further handling. All fungicides were evaluated using the aforementioned method for their activity vs. all target diseases, unless stated otherwise. Wheat leaf blotch and brown rust activity were also evaluated using track spray applications, in which case the fungicides were formulated as EC formulations, containing 0.1% Trycol 5941 in the spray solutions. Wheat plants (variety Yuma) were grown from seed in a greenhouse in 50% mineral soil/50% soil-less Metro mix until the first leaf was fully emerged, with 7-10 seedlings per pot. These plants were inoculated with an aqueous spore suspension of Septoria tritici either prior to or after fungicide treatments. After inoculation the plants were kept in 100% relative humidity (one day in a dark dew chamber followed by two to three days in a lighted dew chamber at 20° C.) to permit spores to germinate and infect the leaf. The plants were then transferred to a greenhouse set at 20° C. for disease to develop. When disease symptoms were fully expressed on the 1st leaves of untreated plants, infection levels were assessed on a scale of 0 to 100 percent disease severity. Percent disease control was calculated using the ratio of disease severity on treated plants relative to untreated plants. Example J: Evaluation of Fungicidal Activity: Cucumber Anthracnose (Glomerella lagenarium; Anamorph: Colletotrichum lagenarium; Bayer code COLLLA) Cucumber seedlings (variety Bush Pickle) were propagated in soil-less Metro mix, with each pot having one plant, and used in the test when 12 to 14 days old. Test plants were inoculated with an aqueous spore suspension of Colletotrichum lagenarium 24 hr after fungicide treatments. After inoculation the plants were kept in a dew room at 22° C. with 100% relative humidity for 48 hr to permit spores to germinate and infect the leaf. The plants were then transferred to a growth room set at 22° C. for disease to develop. Fungicide formulation, application and disease assessment on the sprayed leaves followed the procedures as described in the Example A.

[3] = test system: Puccinia triticina; Synonym: Puccinia recondita f sp. tritici; experiment: Wheat Brown Rust (PUCCRT) fungicidal activity on wheat seedlings; conditions: Low Volume, 121.5 g/H
Summary of the method: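 Yuma wheat seedlings (first leaf emerged) were sprayed to run-off with compound in acetone/water 1:9 (110 ppm Triton X-100), and P. triticina spores were inoculated before or after treatment. Plants were kept overnight in a 22 °C dark dew room at 100% RH, then moved to a 24 °C greenhouse; % control was based on first-leaf severity (0–100%) versus untreated plants.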

[4] = 24 h, 1 Day Protectant, read-out: PUCCRT 1DP disease control
[5] = 72 h, 3 Day Curative, read-out: PUCCRT 3DC disease control

COc1ccnc(C(=O)N[C@@H](C)C(=O)O[C@@H](C)C(c2ccc(F)cc2)c2ccc(F)cc2)c1OC(C)=O [Cmpd 145]
pest or weed control at 100 ppm [1]: > 80%
pest or weed control at 100 ppm [2]: > 80%
pest or weed control at 121.5 g/ha [3, 4]: > 80%
pest or weed control at 121.5 g/ha [3, 5]: > 80%

COc1ccnc(C(=O)N[C@@H](C)C(=O)O[C@@H](C)C(c2ccc(F)cc2F)c2ccc(F)cc2F)c1OCOC(C)=O [Cmpd 148]
pest or weed control at 100 ppm [1]: > 80%
pest or weed control at 100 ppm [2]: > 80%
pest or weed control at 121.5 g/ha [3, 4]: > 80%
pest or weed control at 121.5 g/ha [3, 5]: > 80%

COc1ccnc(C(=O)N[C@@H](C)C(=O)O[C@@H](C)C(c2ccccc2)c2ccccc2)c1OC(=O)C(C)C [Cmpd 140]
pest or weed control at 100 ppm [1]: > 80%
pest or weed control at 100 ppm [2]: > 80%
pest or weed control at 121.5 g/ha [3, 4]: > 80%
pest or weed control at 121.5 g/ha [3, 5]: < 80%

COc1ccnc(C(=O)N[C@@H](C)C(=O)O[C@@H](C)C(c2ccc(F)cc2)c2ccc(F)cc2)c1OCOC(C)=O [Cmpd 146]
pest or weed control at 100 ppm [1]: > 80%
pest or weed control at 100 ppm [2]: > 80%
pest or weed control at 121.5 g/ha [3, 4]: > 80%
pest or weed control at 121.5 g/ha [3, 5]: > 80%

COc1ccnc(C(=O)N[C@@H](C)C(=O)O[C@@H](C)C(c2ccccc2)c2ccccc2)c1OC(C)=O [Cmpd 139, (S)-(S)-1,1-diphenylpropan-2-yl 2-(3-acetoxy-4-methoxypicolinamido)propanoate]
pest or weed control at 100 ppm [1]: > 80%
pest or weed control at 100 ppm [2]: > 80%
pest or weed control at 121.5 g/ha [3, 4]: > 80%
pest or weed control at 121.5 g/ha [3, 5]: > 80%

COc1ccnc(C(=O)N[C@@H](C)C(=O)O[C@@H](C)C(c2ccccc2)c2ccccc2)c1OCOC(=O)C(C)C [Cmpd 142, (S)-(S)-1,1-diphenylpropan-2-yl 2-(3-((isobutyryloxy)methoxy)-4-methoxypicolinamido)propanoate]
pest or weed control at 100 ppm [1]: > 80%
pest or weed control at 100 ppm [2]: > 80%
pest or weed control at 121.5 g/ha [3, 4]: > 80%
pest or weed control at 121.5 g/ha [3, 5]: > 80%

COc1ccnc(C(=O)N[C@@H](C)C(=O)O[C@@H](C)C(c2ccccc2)c2ccccc2)c1OCOC(C)=O [Cmpd 141, (S)-(S)-1,1-diphenylpropan-2-yl 2-(3-(acetoxymethoxy)-4-methoxypicolinamido)propanoate]
pest or weed control at 100 ppm [1]: > 80%
pest or weed control at 100 ppm [2]: > 80%
pest or weed control at 121.5 g/ha [3, 4]: > 80%
pest or weed control at 121.5 g/ha [3, 5]: > 80%

COc1ccnc(C(=O)N[C@@H](C)C(=O)O[C@@H](C)C(c2ccc(Cl)cc2)c2ccc(Cl)cc2)c1OC(C)=O [Cmpd 174]
pest or weed control at 100 ppm [1]: > 80%
pest or weed control at 100 ppm [2]: > 80%
pest or weed control at 121.5 g/ha [3, 4]: > 80%
pest or weed control at 121.5 g/ha [3, 5]: < 80%

COc1ccnc(C(=O)N[C@@H](C)C(=O)O[C@@H](C)C(c2ccc(F)cc2F)c2ccc(F)cc2F)c1OC(C)=O [Cmpd 150]
pest or weed control at 100 ppm [1]: > 80%
pest or weed control at 100 ppm [2]: > 80%
pest or weed control at 121.5 g/ha [3, 4]: > 80%
pest or weed control at 121.5 g/ha [3, 5]: > 80%

COc1ccnc(C(=O)N[C@@H](C)C(=O)O[C@@H](C)C(c2ccc(Cl)cc2)c2ccc(Cl)cc2)c1OCOC(C)=O [Cmpd 176]
pest or weed control at 100 ppm [1]: > 80%
pest or weed control at 100 ppm [2]: > 80%
pest or weed control at 121.5 g/ha [3, 4]: > 80%
pest or weed control at 121.5 g/ha [3, 5]: > 80%
